Experimental data: US12433836B2, “Parenterally administered immune enhancing drugs” (ARCUS BIOSCIENCES, INC., priority 2018, dated 2025)
Where two headings read alike, the source gives them in different places. Each block holds one compound with its values, some of them ahead of it.

Assays:
[1] = Pharmacokinetics after single IV bolus dose in rats
Method: (§1) At the designated time points, blood was collected into tubes containing potassium EDTA and stored on ice until processed by centrifugation. The resultant plasma was stored in a freezer maintained at approximately −80° C.
(§2) Plasma samples were prepared by protein precipitation. An aliquot of 30 to 50 μL sample was mixed with acetonitrile containing an internal standard. The mixture was vortexed and then centrifuged. The resultant supernatant was directly analyzed by a sensitive and specific analytical procedure. Analytes were separated by liquid chromatography (LC), and detected by tandem mass spectrometry (MS/MS). The lower limit of quantitation (LLOQ) was 1.0 to 5.0 ng/mL.

[2] = Pharmacokinetics after single IV bolus dose in mice
Method: as §1, §2

[3] = Pharmacokinetics after single IV bolus dose in monkeys
Method: as §1, §2

[4] = Pharmacokinetics after single IV bolus dose in dogs; conditions: for CL: Dog, single dose IV bolus, mean noncompartmental; for volume of distribution at steady state, in words: dogs, single IV dose; for Vd / half-life: male, beagle, dog, iv
Method: as §1, §2

[5] = Pharmacokinetics in preclinical species, summary across species; format: in vivo, mice, rats, dogs, monkeys; conditions: single IV dose; for clearance (CL), in words: all preclinical species; for half-life: both sexes, CD-1 (mouse), Sprague-Dawley (rat), beagle (dog), mouse, rat, dog, cynomolgus monkey, plasma, range over preclinical species, read-out: terminal half-lives; for volume of distribution at steady state, in words: mice, rats and monkeys
Method: Plasma samples were prepared by protein precipitation. […] The mixture was vortexed and then centrifuged.
Compound 1 and Compound 2 volume of distribution at steady (Vu) was low in mice, rats and monkeys, but moderate-to-high in dogs. The terminal half-lives (Ti2) of Compound 1 and Compound 2 ranged from 3.5 to 41 hours, and 6.5 to 34 hours, respectively.

[6] = system: bladder cancer; conditions: cited from earlier work
[7] = system: squamous cell carcinoma of the head and neck; conditions: recurrent or metastatic squamous cell carcinoma of the head and neck; cited from earlier work
[8] = Rat, single dose IV bolus, mean noncompartmental
[9] = male, Sprague-Dawley, rat, plasma, iv
[10] = female, CD-1, mouse, plasma, iv
[11] = Monkey, single dose IV bolus, mean noncompartmental
[12] = male, cynomolgus monkey, plasma, iv
[13] = female, CD-1, mouse, in vivo, iv

- CL [1, 8]: 0.020 L/h/kg
- T1/2 [1, 8]: 5.3 h
- Vd [1, 9]: 0.12 L/kg
- CL ([2]; Mouse, single dose IV bolus, mean noncompartmental): 0.025 L/h/kg
- Vd [2, 10]: 0.12 L/kg
- half-life [2, 10]: 210 min
- CL [3, 11]: 2.5 mL/h/kg
- Vd [3, 12]: 0.097 L/kg
- half-life [3, 12]: 2460 min
- CL [4]: 0.050 L/h/kg
- volume of distribution at steady state, in words [4]: moderate-to-high
- Vd ([4]; plasma): 1.3 L/kg
- half-life ([4]; plasma): 1260 min
- clearance (CL), in words [5]: low
- half-life [5]: 210 to 2460 min
- volume of distribution at steady state, in words [5]: low
Compound: C[C@H](Nc1cc(Cl)nc2c1cnn2[C@@H]1O[C@H](COP(=O)(O)CP(=O)(O)O)[C@@H](O)[C@H]1O)c1ccccc1F [Compound 1]

Compound: C[C@H](Nc1cc(Cl)nc2c1cnn2[C@@H]1O[C@H](COP(=O)(O)CP(=O)(O)O)[C@@H](O)[C@H]1O)c1ccc(F)cc1 [Compound 2]
- T1/2 [1, 8]: 9.6 h
- Vd ([1]; male, Sprague-Dawley, rat, in vivo, iv): 0.12 L/kg
- clearance [1, 9]: 0.155 mL/min/kg
- Vd [2, 13]: 0.11 L/kg
- clearance [2, 13]: 0.25 mL/min/kg
- half-life [2, 13]: 390 min
- CL [3, 11]: 1.7 mL/h/kg
- T1/2 [3, 11]: 34 h
- Vd ([3]; male, cynomolgus monkey, in vivo, iv): 0.078 L/kg
- CL [4]: 0.034 L/h/kg
- volume of distribution at steady state, in words [4]: moderate-to-high
- Vd ([4]; in vivo): 0.63 L/kg
- half-life ([4]; in vivo): 900 min
- clearance (CL), in words [5]: low
- half-life [5]: 390 to 2040 min
- volume of distribution at steady state, in words [5]: low

Compound: atezolizumab: the first approved anti-PD-L1 therapy
- response rate ([6]; all patients): 15%
- response rate ([6]; patients with more PD-L1-positive immune cells): 27%

Compound: nivolumab: PD-1 blocking antibody
- estimated 1-year survival rate versus standard chemotherapy [7]: more than two-fold higher
